Laboratory results as given in patent US5235045A, “Non-azo naphthalimide dyes” (priority 1992, dated 1993).
Read-outs that look alike come from different tables or passages of the source.

Experiments:
[1] = Cell viability in absence of light (trypan blue exclusion); format: cell-based, human; settings: human, dark, medium 1.5 hours, counted 2.5 hours after
Source text: Following the protocol of (1), above, H9 cells were stained with Compound lb, and the technique of fluorescent microscopy was used to determine visually the sites of localization of dye fluorescence in living cells. Specifically, H9 cells were counted with a hemocytometer and diluted to 5×10^5 /ml. […] Cytospin slides of the cell suspensions were made and they were examined with the fluorescence microscope (Olympus AH-2) using B excitation plus a 460 nm interference excitation filter and a 495 nm emission filter. The cells were also counted with a hemocytometer and their viability determined (see below). […] The former may reflect the diffusional component of the dye incorporation, or may reflect binding in the ER membrane. The latter may indicate lysosomal localization of pinocytosed dye as occurs with Lucifer Yellow.
Cell viability was determined using dye incorporated according to the protocol directly above. Viability was determined using a trypan blue dye exclusion test in which "live" cells with competent cell membranes exclude the dye. Table 5 summarizes the data obtained using cells exposed to Compound 1b in culture medium, and Table 6 summarizes data obtained using cells exposed to Compound VII.

H9 cells = assay: Dye-mediated light kill of H9 cells (trypan blue); format: cell-based; settings: Homo sapiens, read-out: Percent Viability
Experimental: Photoinduced killing of H9 cells with Compound 1b as the mediator of photochemical toxicity were carried out according to the following protocol:
Compound 1b was added to the H9 cells (5×10^5 /ml) in medium or 100% human plasma to give dye concentrations of 0, 25 and 100 μM (1 control, 2 duplicates of both non-azo dye samples). Two 2-ml aliquots of each of the duplicated dye samples was irradiated with 10J/cm^2 total energy of 450±35 nm wavelength light in a sealed 3-ml test tube. Immediately after irradiation, the cells were centrifuged at 450×g for 10 minutes, and the pellets resuspended in the original volume of fresh RPMI-1640+10% FCS+gentamycin. The cell suspensions were transferred to a 12-well TC plate and placed in a 37° C. 5% CO2 incubator. Cell viability counts (trypan blue) were carried out at 4, 24, 48, and 72 hours post irradiation. The results of these experiments are summarized in Tables 7 (medium) and 8 (100% human plasma).
Photoinduced killing of H9 cells with Compound VII as the mediator of photochemical toxicity were carried out in 10% FCS medium according to the same general protocol using concentrations of the dye at 0, 5, 25 and 100 μM., and irradiating at 420±5 nm at 10J/cm^2 total energy.

Vero cells = assay: Cellular toxicity in Vero cells (viral-medium suspension samples); format: cell-based; settings: DiEd6Br
Experimental: (§1) Each sample including the stock virus were assayed on Vero cells for PFU/ml of HSV-1. The assay consisted of growing Vero cells in minimal essential medium with Hanks balanced salt solution supplemented with 10% fetal bovine serum, L-glutamine and antibiotics. Hepes buffer (2%) was added for growth in open plates (twelve well microplates from CO-star). Ten fold dilutions of each sample were prepared and 0.1 ml of the appropriate dilution for each individual sample was adsorbed at 37° C. for 1.5 hr. on a cell monolayer from which the growth medium had been removed. After the adsorption period, the cell monolayer was washed and an overlay consisting of equal volumes of 2X strength L-15 medium and 2% methylcellulose was added. Following an appropriate incubation time at 37° C. (about 4 days), the overlay medium was removed. Monolayers were fixed with methanol and stained with giemsa to elaborate the presence of plaques. The plaques were counted using a dissecting microscope at a magnification of 20X.
as §1, with “Co-star).” for “CO-star).”

[2] = Bleaching and recovery of fluorescence in aqueous suspension of Cremophor EL; format: physicochemical
Experimental: A 14.9 millimolar stock solution of Ed6Br in Cremophor EL was used to make 3 ml of a micellar Cremophor suspension having a concentration averaged over the entire sample volume of […]. A […] aliquot was removed and diluted with 2.9 ml of distilled water for measurement of fluorescence using an SLM 500C spectrofluorometer (excitation, 420 nm, emission, 520 nm). The 3 ml sample was divided into two 1.5 ml aliquots placed in quartz crusetts. One sample was irradiated with stirring with 420 # 5 nm filtered light from a xenon arc lamp with an irradiance of 20 mW/cm^2 and with the companion sample wrapped in aluminum foil (dark control) and maintained alongside of the irradiated sample. […] After the entire light treatment, both the illuminated and dark control samples were divided into two equal aliquots and held pairwise (dark+previously illuminated) at 4° C. and 20° C. in the absence of light. Aliquots of […] were taken from each sample after 18 and 43 hr and their fluorescence emission values determined using the SLM 500C instrument immediately after sampling.
In an experiment eventually following the protocol described immediately above in Part I (for Ed6Br), the light-induced bleaching of DiEd6Br with 200 J/cm^2 light exposure and recovery of its fluorescence upon standing in the dark at 22° C. were determined.

[3] = H9, 4 h, no hν, 10% FCS medium, 4 hours
[4] = H9, 4 h, no hν, 100% human plasma, 4 hours
[5] = H9, 24 h, no hν, 10% FCS medium, 24 hours
[6] = H9, 24 h, no hν, 100% human plasma, 24 hours
[7] = H9, 48 h, no hν, 10% FCS medium, 48 hours
[8] = H9, 48 h, no hν, 100% human plasma, 48 hours
[9] = H9, 72 h, no hν, 10% FCS medium, 72 hours
[10] = H9, 72 h, no hν, 100% human plasma, 72 hours
[11] = H9, light or radiation study, 4 h, hν 10J/cm^2, 450±35 nm, 10% FCS medium, 4 hours
[12] = H9, light or radiation study, 4 h, hν 10J/cm^2, 450±35 nm, 100% human plasma, 4 hours
[13] = H9, light or radiation study, 24 h, hν 10J/cm^2, 450±35 nm, 10% FCS medium, 24 hours
[14] = H9, light or radiation study, 24 h, hν 10J/cm^2, 450±35 nm, 100% human plasma, 24 hours
[15] = H9, light or radiation study, 48 h, hν 10J/cm^2, 450±35 nm, 10% FCS medium, 48 hours
[16] = H9, light or radiation study, 48 h, hν 10J/cm^2, 450±35 nm, 100% human plasma, 48 hours
[17] = H9, light or radiation study, 72 h, hν 10J/cm^2, 450±35 nm, 10% FCS medium, 72 hours
[18] = H9, light or radiation study, 72 h, hν 10J/cm^2, 450±35 nm, 100% human plasma, 72 hours

SMILES: CCCCCCNc1ccc2c3c(cccc13)C(=O)N(CCCCCC)C2=O [Compound 1b, 4-(hexyl)amino-N-hexyl-1,8-naphthalimide]
- viability at 1.5 h, 5 µM ([1]; 5 μM): 96.7%
- viability at 1.5 h, 25 µM ([1]; 25 μM): 97.1%
- viability at 25 µM (H9 cells; [3]): 96.9%
- viability at 25 µM (H9 cells; [4]): 97.2%
- viability at 100 µM (H9 cells; [3]): 94.6%
- viability at 100 µM (H9 cells; [4]): 99.2%
- viability at 25 µM (H9 cells; [5]): 94.8%
- viability at 25 µM (H9 cells; [6]): 93.4%
- viability at 100 µM (H9 cells; [5]): 94.6%
- viability at 100 µM (H9 cells; [6]): 94.3%
- viability at 25 µM (H9 cells; [7]): 90.5%
- viability at 25 µM (H9 cells; [8]): 86.4%
- viability at 100 µM (H9 cells; [7]): 91.3%
- viability at 100 µM (H9 cells; [8]): 90.7%
- viability at 25 µM (H9 cells; [9]): 91.4%
- viability at 25 µM (H9 cells; [10]): 85%
- viability at 100 µM (H9 cells; [9]): 85.1%
- viability at 100 µM (H9 cells; [10]): 87.4%
- viability at 25 µM (H9 cells; [11]): 62.8%
- viability at 25 µM (H9 cells; [12]): 97.9%
- viability at 100 µM (H9 cells; [11]): 87.2%
- viability at 100 µM (H9 cells; [12]): 97.4%
- viability at 25 µM (H9 cells; [13]): 8.4%
- viability at 25 µM (H9 cells; [14]): 94.4%
- viability at 100 µM (H9 cells; [13]): 52%
- viability at 100 µM (H9 cells; [14]): 92.4%
- viability at 25 µM (H9 cells; [15]): 10%
- viability at 25 µM (H9 cells; [16]): 86.5%
- viability at 100 µM (H9 cells; [15]): 64.8%
- viability at 100 µM (H9 cells; [16]): 92.6%
- viability at 25 µM (H9 cells; [17]): 30.6%
- viability at 25 µM (H9 cells; [18]): 90.2%
- viability at 100 µM (H9 cells; [17]): 71.4%
- viability at 100 µM (H9 cells; [18]): 88.2%

SMILES: CCCCCCN1C(=O)c2cccc3c(NCCNC(=O)CCCCC(=O)NCCNc4c(Br)cc5c6c(cccc46)C(=O)N(CCCCCC)C5=O)c(Br)cc(c23)C1=O [Compound XLIV]
- cellular toxicity (Vero cells; 2 concentrations, not irradiated (Table 18 experiment)): no evidence of cellular toxicity
- cellular toxicity (Vero cells; 8 concentrations, not irradiated (Table 15 experiment)): no evidence of cellular toxicity
- cellular toxicity (Vero cells; 8 concentrations, not irradiated (Table 16 experiment)): no evidence of cellular toxicity
- fluorescence, % of initial (dark) value ([2]; 200 J/cm^2, 420 nm): 32.2%
- fluorescence recovered, % of initial value ([2]; 70 hours at 22° C.): 62.7%
- fluorescence recovered, % of initial value ([2]; 166 hours at 22° C.): 64.0%
- initially activated species permanently losing fluorescence ([2]; Cremophor EL): Approximately 50%
- initially activated species recovering fluorescence ([2]; Cremophor EL): Approximately 50%
